Results from the supplement of paper PMC10307832.

Experiments:
Experiment in all cases: relative viability (nuclei count vs DMSO), 5 days (fraction); higher = more cells survive
[1] = test system: EPLC-272H
Procedure, shortened: (§1)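 Each reported value is a median over duplicate plates. It expresses relative viability: treated-well nuclei count divided by vehicle-well nuclei count. Lung cancer cell lines in 1536-well plates were dosed by pin tool a day after seeding, alone with one drug or with a fixed anchor-drug dose plus five library-drug doses (not always all listed) in √10 steps, and nuclei were counted after 5 days.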

[2] = test system: H3255
Procedure, shortened: as §1

[3] = test system: HARA
Procedure, shortened: as §1

[4] = test system: LC-2-ad
Procedure, shortened: as §1

[5] = test system: LOU-NH91
Procedure, shortened: as §1

[6] = test system: NCI-H1650
Procedure, shortened: as §1

[7] = test system: NCI-H1651
Procedure, shortened: as §1

[8] = test system: NCI-H1975
Procedure, shortened: as §1

[9] = test system: NCI-H2009
Procedure, shortened: as §1

[10] = test system: NCI-H2023
Procedure, shortened: as §1

[11] = test system: NCI-H2085
Procedure, shortened: as §1

[12] = test system: NCI-H2087
Procedure, shortened: as §1

[13] = test system: NCI-H2170
Procedure, shortened: as §1

[14] = test system: NCI-H2228
Procedure, shortened: as §1

[15] = test system: NCI-H23
Procedure, shortened: as §1

[16] = test system: NCI-H441
Procedure, shortened: as §1

[17] = test system: NCI-H650
Procedure, shortened: as §1

[18] = test system: NCI-H727
Procedure, shortened: as §1

[19] = test system: NCI-H838
Procedure, shortened: as §1

[20] = test system: PC-3 [JPC-3]
Procedure, shortened: as §1

[21] = test system: SW 1573
Procedure, shortened: as §1

[22] = test system: SW 900
Procedure, shortened: as §1

[23] = test system: UMC-11
Procedure, shortened: as §1

CN1CCN(CCOc2cc(OC3CCOCC3)c3c(Nc4c(Cl)ccc5c4OCO5)ncnc3c2)CC1 [Saracatinib] + N=C(N)NC(=N)NCCc1ccccc1 [Phenformin] (partner 250 µM)
relative viability ([1]; first compound 0.02 µM): 0.285 | relative viability ([1]; first compound 0.2 µM): 0.327 | relative viability ([1]; first compound 0.6325 µM): 0.319 | relative viability ([1]; first compound 2 µM): 0.251 | relative viability ([2]; first compound 0.02 µM): 0.354 | relative viability ([2]; first compound 0.2 µM): 0.33 | relative viability ([2]; first compound 0.6325 µM): 0.254 | relative viability ([2]; first compound 2 µM): 0.251 | relative viability ([3]; first compound 0.02 µM): 0.54 | relative viability ([3]; first compound 0.2 µM): 0.279 | relative viability ([3]; first compound 0.6325 µM): 0.496 | relative viability ([3]; first compound 2 µM): 0.24 | relative viability ([4]; first compound 0.02 µM): 0.588 | relative viability ([4]; first compound 0.2 µM): 0.554 | relative viability ([4]; first compound 0.6325 µM): 0.652 | relative viability ([4]; first compound 2 µM): 0.546 | relative viability ([5]; first compound 0.02 µM): 0.648 | relative viability ([5]; first compound 0.2 µM): 0.47 | relative viability ([5]; first compound 0.6325 µM): 0.553 | relative viability ([5]; first compound 2 µM): 0.403 | relative viability ([6]; first compound 0.02 µM): 0.412 | relative viability ([6]; first compound 0.2 µM): 0.253 | relative viability ([6]; first compound 0.6325 µM): 0.317 | relative viability ([6]; first compound 2 µM): 0.295 | relative viability ([7]; first compound 0.02 µM): 0.414 | relative viability ([7]; first compound 0.2 µM): 0.258 | relative viability ([7]; first compound 0.6325 µM): 0.388 | relative viability ([7]; first compound 2 µM): 0.3 | relative viability ([8]; first compound 0.02 µM): 0.422 | relative viability ([8]; first compound 0.2 µM): 0.348 | relative viability ([8]; first compound 0.6325 µM): 0.387 | relative viability ([8]; first compound 2 µM): 0.32 | relative viability ([9]; first compound 0.02 µM): 0.45 | relative viability ([9]; first compound 0.2 µM): 0.428 | relative viability ([9]; first compound 0.6325 µM): 0.389 | relative viability ([9]; first compound 2 µM): 0.334 | relative viability ([10]; first compound 0.02 µM): 0.448 | relative viability ([10]; first compound 0.2 µM): 0.303 | relative viability ([10]; first compound 0.6325 µM): 0.236 | relative viability ([10]; first compound 2 µM): 0.257 | relative viability ([11]; first compound 0.2 µM): 0.694 | relative viability ([11]; first compound 0.6325 µM): 0.809 | relative viability ([11]; first compound 2 µM): 0.667 | relative viability ([12]; first compound 0.02 µM): 0.484 | relative viability ([12]; first compound 0.2 µM): 0.39 | relative viability ([12]; first compound 0.6325 µM): 0.468 | relative viability ([12]; first compound 2 µM): 0.355 | relative viability ([13]; first compound 0.02 µM): 0.396 | relative viability ([13]; first compound 0.2 µM): 0.332 | relative viability ([13]; first compound 0.6325 µM): 0.352 | relative viability ([13]; first compound 2 µM): 0.295 | relative viability ([14]; first compound 0.02 µM): 0.345 | relative viability ([14]; first compound 0.2 µM): 0.327 | relative viability ([14]; first compound 0.6325 µM): 0.346 | relative viability ([14]; first compound 2 µM): 0.194 | relative viability ([15]; first compound 0.02 µM): 0.807 | relative viability ([15]; first compound 0.2 µM): 0.631 | relative viability ([15]; first compound 0.6325 µM): 0.917 | relative viability ([15]; first compound 2 µM): 0.739 | relative viability ([16]; first compound 0.02 µM): 0.768 | relative viability ([16]; first compound 0.2 µM): 0.733 | relative viability ([16]; first compound 0.6325 µM): 1.17 | relative viability ([16]; first compound 2 µM): 0.819 | relative viability ([17]; first compound 0.02 µM): 0.465 | relative viability ([17]; first compound 0.2 µM): 0.429 | relative viability ([17]; first compound 0.6325 µM): 0.495 | relative viability ([17]; first compound 2 µM): 0.461 | relative viability ([18]; first compound 0.02 µM): 0.535 | relative viability ([18]; first compound 0.2 µM): 0.238 | relative viability ([18]; first compound 0.6325 µM): 0.465 | relative viability ([18]; first compound 2 µM): 0.316 | relative viability ([19]; first compound 0.02 µM): 0.645 | relative viability ([19]; first compound 0.2 µM): 0.486 | relative viability ([19]; first compound 0.6325 µM): 0.49 | relative viability ([19]; first compound 2 µM): 0.379 | relative viability ([20]; first compound 0.02 µM): 0.49 | relative viability ([20]; first compound 0.2 µM): 0.421 | relative viability ([20]; first compound 0.6325 µM): 0.421 | relative viability ([20]; first compound 2 µM): 0.339 | relative viability ([21]; first compound 0.02 µM): 0.537 | relative viability ([21]; first compound 0.2 µM): 0.382 | relative viability ([21]; first compound 0.6325 µM): 0.313 | relative viability ([21]; first compound 2 µM): 0.313 | relative viability ([22]; first compound 0.02 µM): 0.756 | relative viability ([22]; first compound 0.2 µM): 0.36 | relative viability ([22]; first compound 0.6325 µM): 0.493 | relative viability ([22]; first compound 2 µM): 0.47 | relative viability ([23]; first compound 0.02 µM): 0.341 | relative viability ([23]; first compound 0.6325 µM): 0.32 | relative viability ([23]; first compound 2 µM): 0.232
